Columns and labels:
[1] = system: Tyrosine-protein kinase ABL1 (Homo sapiens), P00519 [H396P]; assay: Binding affinity to human non-phosphorylated ABL1 H396P mutant (S229 to K512 residues) expressed in mammalian expression system assessed as residual binding level at 10 uM by Kinomescan method relative to control
[2] = molecular target: Activin receptor type-2B (Homo sapiens) (UniProt Q13705); assay: Binding affinity to wild-type human ACVR2B (H169 to D504 residues) expressed in bacterial expression system assessed as residual binding level at 10 uM by Kinomescan method relative to control
[3] = molecular target: Cytoplasmic tyrosine-protein kinase BMX (Homo sapiens) (UniProt P51813); assay: Binding affinity to wild-type human full length BMX (M1 to H675 residues) expressed in bacterial expression system assessed as residual binding level at 10 uM by Kinomescan method relative to control
[4] = molecular target: Cyclin-dependent kinase-like 2 (Homo sapiens) (UniProt Q92772); assay: Binding affinity to wild-type human partial length CDKL2 (M1 to D327 residues) expressed in bacterial expression system assessed as residual binding level at 10 uM by Kinomescan method relative to control
Chain of Cyclin-dependent kinase-like 2 (Homo sapiens) (Q92772 whole entry, the tested form may be a part): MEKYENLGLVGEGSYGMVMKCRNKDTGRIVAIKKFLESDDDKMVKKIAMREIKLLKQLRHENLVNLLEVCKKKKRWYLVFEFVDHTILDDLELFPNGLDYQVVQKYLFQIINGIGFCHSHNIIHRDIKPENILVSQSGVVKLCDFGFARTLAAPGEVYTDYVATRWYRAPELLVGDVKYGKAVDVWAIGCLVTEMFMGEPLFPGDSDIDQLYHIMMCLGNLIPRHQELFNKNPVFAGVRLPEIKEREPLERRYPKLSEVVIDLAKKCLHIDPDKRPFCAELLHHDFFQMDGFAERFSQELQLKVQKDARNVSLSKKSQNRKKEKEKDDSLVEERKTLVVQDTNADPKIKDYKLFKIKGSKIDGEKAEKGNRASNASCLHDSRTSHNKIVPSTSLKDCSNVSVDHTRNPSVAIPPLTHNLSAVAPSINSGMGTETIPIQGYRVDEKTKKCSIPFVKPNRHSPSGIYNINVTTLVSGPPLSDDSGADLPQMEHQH

[5] = molecular target: Serine/threonine-protein kinase Chk1 (Homo sapiens) (UniProt O14757); assay: Binding affinity to wild-type human partial length CHEK1 (M1 to G289 residues) expressed in bacterial expression system assessed as residual binding level at 10 uM by Kinomescan method relative to control
[6] = molecular target: Dual specificity protein kinase CLK2 (Homo sapiens) (UniProt P49760); assay: Binding affinity to wild-type human partial length CLK2 (D144 to R498 residues) expressed in bacterial expression system assessed as residual binding level at 10 uM by Kinomescan method relative to control
[7] = molecular target: Serine/threonine-protein kinase 17B (Homo sapiens) (UniProt O94768); assay: Binding affinity to wild-type human full length DRAK2 (M1 to C372 residues) expressed in bacterial expression system assessed as residual binding level at 10 uM by Kinomescan method relative to control
Chain of Serine/threonine-protein kinase 17B (Homo sapiens) (O94768 whole entry, the tested form may be a part): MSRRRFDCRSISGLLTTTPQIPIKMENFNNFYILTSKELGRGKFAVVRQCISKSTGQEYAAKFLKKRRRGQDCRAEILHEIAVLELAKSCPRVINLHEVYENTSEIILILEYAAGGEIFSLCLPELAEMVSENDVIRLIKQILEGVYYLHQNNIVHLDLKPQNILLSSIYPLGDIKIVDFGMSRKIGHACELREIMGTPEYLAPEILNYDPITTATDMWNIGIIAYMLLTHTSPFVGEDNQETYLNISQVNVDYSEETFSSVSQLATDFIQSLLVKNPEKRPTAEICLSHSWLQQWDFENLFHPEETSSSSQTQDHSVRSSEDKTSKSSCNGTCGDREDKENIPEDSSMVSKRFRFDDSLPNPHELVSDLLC

[8] = system: Epidermal growth factor receptor (Homo sapiens), P00533 [G719S]; assay: Binding affinity to human partial length EGFR G719S mutant (R669 to V1011 residues) expressed in bacterial expression system assessed as residual binding level at 10 uM by Kinomescan method relative to control
[9] = system: Epidermal growth factor receptor (Homo sapiens), P00533 [UNDEFINED MUTATION]; assay: Binding affinity to human partial length EGFR L747-E749del/A750P mutant expressed in bacterial expression system assessed as residual binding level at 10 uM by Kinomescan method relative to control
[10] = molecular target: Ephrin type-B receptor 2 (Homo sapiens) (UniProt P29323); assay: Binding affinity to wild-type human partial length EPHB2 (I597 to L902 residues) expressed in bacterial expression system assessed as residual binding level at 10 uM by Kinomescan method relative to control
[11] = system: Receptor-type tyrosine-protein kinase FLT3 (Homo sapiens), P36888 [N841I]; assay: Binding affinity to human partial length FLT3 N841I mutant (V592 to Y969 residues) expressed in bacterial expression system assessed as residual binding level at 10 uM by Kinomescan method relative to control
[12] = molecular target: Mitogen-activated protein kinase 9 (Homo sapiens) (UniProt P45984); assay: Binding affinity to wild-type human full length JNK2 (M1 to Q382 residues) expressed in mammalian expression system assessed as residual binding level at 10 uM by Kinomescan method relative to control
[13] = system: Mast/stem cell growth factor receptor Kit (Homo sapiens), P10721 [D816V]; assay: Binding affinity to human partial length KIT D816V mutant (I571 to D952 residues) expressed in bacterial expression system assessed as residual binding level at 10 uM by Kinomescan method relative to control
[14] = system: Leucine-rich repeat serine/threonine-protein kinase 2 (Homo sapiens), Q5S007 [G2019S]; assay: Binding affinity to human partial length LRRK2 G2019S mutant (H970 to E2527 residues) expressed in mammalian expression system assessed as residual binding level at 10 uM by Kinomescan method relative to control
[15] = molecular target: Dual specificity mitogen-activated protein kinase kinase 3 (Homo sapiens) (UniProt P46734); assay: Binding affinity to wild-type human full length MEK3 (M1 to S318 residues) expressed in mammalian expression system assessed as residual binding level at 10 uM by Kinomescan method relative to control
Chain of Dual specificity mitogen-activated protein kinase kinase 3 (Homo sapiens) (P46734 whole entry, the tested form may be a part): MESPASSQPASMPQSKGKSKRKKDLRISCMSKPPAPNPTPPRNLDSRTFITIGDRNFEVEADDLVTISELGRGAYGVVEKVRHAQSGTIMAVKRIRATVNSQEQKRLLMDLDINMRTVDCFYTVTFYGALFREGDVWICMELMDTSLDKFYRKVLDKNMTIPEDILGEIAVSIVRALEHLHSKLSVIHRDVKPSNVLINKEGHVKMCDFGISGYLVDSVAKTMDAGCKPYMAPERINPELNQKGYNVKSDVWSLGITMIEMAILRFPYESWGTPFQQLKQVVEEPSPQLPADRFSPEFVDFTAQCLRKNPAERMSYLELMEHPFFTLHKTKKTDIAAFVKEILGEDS

[16] = molecular target: MAP kinase-interacting serine/threonine-protein kinase 1 (Homo sapiens) (UniProt Q9BUB5); assay: Binding affinity to wild-type human full length MKNK1 (M1 to L424 residues) expressed in mammalian expression system assessed as residual binding level at 10 uM by Kinomescan method relative to control
Chain of MAP kinase-interacting serine/threonine-protein kinase 1 (Homo sapiens) (Q9BUB5 whole entry, looked up, the tested form may be a part): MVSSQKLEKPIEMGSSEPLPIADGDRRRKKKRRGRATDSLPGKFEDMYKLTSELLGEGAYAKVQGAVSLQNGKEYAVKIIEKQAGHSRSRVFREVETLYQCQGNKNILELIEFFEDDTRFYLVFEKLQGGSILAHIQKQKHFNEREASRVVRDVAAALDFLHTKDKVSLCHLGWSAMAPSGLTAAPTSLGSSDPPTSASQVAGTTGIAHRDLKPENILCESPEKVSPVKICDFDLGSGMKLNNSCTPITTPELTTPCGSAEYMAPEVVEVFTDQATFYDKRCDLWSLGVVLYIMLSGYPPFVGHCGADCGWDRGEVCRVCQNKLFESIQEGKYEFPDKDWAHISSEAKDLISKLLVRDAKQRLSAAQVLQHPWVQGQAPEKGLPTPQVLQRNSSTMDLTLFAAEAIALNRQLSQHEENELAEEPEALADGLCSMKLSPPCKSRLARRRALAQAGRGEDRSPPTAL

[17] = molecular target: Serine/threonine-protein kinase 3 (Homo sapiens) (UniProt Q13188); assay: Binding affinity to wild-type human partial length MST2 (D17 to E318 residues) expressed in bacterial expression system assessed as residual binding level at 10 uM by Kinomescan method relative to control
Chain of Serine/threonine-protein kinase 3 (Homo sapiens) (Q13188 whole entry, the tested form may be a part): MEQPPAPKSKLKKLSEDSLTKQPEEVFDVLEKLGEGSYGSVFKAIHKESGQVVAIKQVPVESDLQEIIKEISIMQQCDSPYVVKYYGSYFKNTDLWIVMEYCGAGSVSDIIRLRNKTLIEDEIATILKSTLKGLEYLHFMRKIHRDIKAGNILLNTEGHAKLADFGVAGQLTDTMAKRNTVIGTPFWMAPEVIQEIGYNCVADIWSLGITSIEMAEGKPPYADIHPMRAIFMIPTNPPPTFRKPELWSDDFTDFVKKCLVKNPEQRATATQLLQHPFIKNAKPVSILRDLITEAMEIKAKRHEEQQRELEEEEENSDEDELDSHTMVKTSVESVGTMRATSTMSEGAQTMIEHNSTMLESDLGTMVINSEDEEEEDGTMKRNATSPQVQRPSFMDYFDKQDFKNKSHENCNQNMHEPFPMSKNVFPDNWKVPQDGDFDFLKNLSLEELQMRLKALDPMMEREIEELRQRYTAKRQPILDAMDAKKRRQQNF

[18] = molecular target: Serine/threonine-protein kinase Nek7 (Homo sapiens) (UniProt Q8TDX7); assay: Binding affinity to wild-type human full length NEK7 (M1 to S302 residues) expressed in bacterial expression system assessed as residual binding level at 10 uM by Kinomescan method relative to control
Chain of Serine/threonine-protein kinase Nek7 (Homo sapiens) (Q8TDX7 whole entry, looked up, the tested form may be a part): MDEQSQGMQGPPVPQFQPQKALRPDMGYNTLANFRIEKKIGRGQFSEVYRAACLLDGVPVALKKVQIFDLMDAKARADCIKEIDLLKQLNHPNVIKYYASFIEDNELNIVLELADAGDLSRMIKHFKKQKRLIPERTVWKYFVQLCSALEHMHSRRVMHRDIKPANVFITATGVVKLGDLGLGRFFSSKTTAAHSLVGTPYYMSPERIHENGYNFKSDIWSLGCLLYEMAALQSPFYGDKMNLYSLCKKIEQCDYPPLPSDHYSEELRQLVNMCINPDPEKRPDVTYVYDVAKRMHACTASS

[19] = molecular target: Mitogen-activated protein kinase 14 (Homo sapiens) (UniProt Q16539); assay: Binding affinity to wild-type human full length p38-alpha (M1 to S360 residues) expressed in bacterial expression system assessed as residual binding level at 10 uM by Kinomescan method relative to control
Chain of Mitogen-activated protein kinase 14 (Homo sapiens) (Q16539 whole entry, the tested form may be a part): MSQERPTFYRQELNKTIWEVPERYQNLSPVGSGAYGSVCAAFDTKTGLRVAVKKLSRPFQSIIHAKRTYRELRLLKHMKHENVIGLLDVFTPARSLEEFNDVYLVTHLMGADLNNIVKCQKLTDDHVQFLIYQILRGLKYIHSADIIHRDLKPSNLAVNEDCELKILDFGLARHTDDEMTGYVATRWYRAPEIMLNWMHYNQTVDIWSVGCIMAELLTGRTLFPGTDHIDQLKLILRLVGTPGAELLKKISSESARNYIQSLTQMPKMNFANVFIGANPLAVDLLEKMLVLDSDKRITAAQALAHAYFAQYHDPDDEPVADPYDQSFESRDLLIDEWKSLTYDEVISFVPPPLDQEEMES

[20] = molecular target: cGMP-dependent protein kinase 1 (Homo sapiens) (UniProt Q13976); assay: Binding affinity to wild-type human partial length PRKG1 (L339 to F686 residues) expressed in bacterial expression system assessed as residual binding level at 10 uM by Kinomescan method relative to control
Chain of cGMP-dependent protein kinase 1 (Homo sapiens) (Q13976 whole entry, the tested form may be a part): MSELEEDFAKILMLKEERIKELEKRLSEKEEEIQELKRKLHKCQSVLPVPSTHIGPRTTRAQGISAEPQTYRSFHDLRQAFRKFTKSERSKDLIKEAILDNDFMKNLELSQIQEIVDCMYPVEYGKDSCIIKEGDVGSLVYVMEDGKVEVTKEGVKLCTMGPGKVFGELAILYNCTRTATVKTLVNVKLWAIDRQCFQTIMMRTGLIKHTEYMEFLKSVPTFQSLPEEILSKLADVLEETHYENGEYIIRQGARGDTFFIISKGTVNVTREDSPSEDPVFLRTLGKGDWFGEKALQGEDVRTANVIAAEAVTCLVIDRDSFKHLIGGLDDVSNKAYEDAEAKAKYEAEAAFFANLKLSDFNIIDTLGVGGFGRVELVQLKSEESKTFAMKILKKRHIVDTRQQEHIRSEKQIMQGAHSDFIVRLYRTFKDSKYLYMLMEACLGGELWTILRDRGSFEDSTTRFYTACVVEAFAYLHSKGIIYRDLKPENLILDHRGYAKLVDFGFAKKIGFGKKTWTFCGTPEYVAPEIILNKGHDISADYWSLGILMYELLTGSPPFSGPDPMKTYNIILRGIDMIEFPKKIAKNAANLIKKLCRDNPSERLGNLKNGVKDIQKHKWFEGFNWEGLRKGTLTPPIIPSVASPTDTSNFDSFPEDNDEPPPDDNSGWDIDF

[21] = molecular target: Ribosomal protein S6 kinase alpha-4 (Homo sapiens) (UniProt O75676); assay: Binding affinity to wild-type human partial length C-terminal RPS6KA4 kinase domain 2 (M375 to T705 residues) expressed in mammalian expression system assessed as residual binding level at 10 uM by Kinomescan method relative to control
Chain of Ribosomal protein S6 kinase alpha-4 (Homo sapiens) (O75676 whole entry, looked up, the tested form may be a part): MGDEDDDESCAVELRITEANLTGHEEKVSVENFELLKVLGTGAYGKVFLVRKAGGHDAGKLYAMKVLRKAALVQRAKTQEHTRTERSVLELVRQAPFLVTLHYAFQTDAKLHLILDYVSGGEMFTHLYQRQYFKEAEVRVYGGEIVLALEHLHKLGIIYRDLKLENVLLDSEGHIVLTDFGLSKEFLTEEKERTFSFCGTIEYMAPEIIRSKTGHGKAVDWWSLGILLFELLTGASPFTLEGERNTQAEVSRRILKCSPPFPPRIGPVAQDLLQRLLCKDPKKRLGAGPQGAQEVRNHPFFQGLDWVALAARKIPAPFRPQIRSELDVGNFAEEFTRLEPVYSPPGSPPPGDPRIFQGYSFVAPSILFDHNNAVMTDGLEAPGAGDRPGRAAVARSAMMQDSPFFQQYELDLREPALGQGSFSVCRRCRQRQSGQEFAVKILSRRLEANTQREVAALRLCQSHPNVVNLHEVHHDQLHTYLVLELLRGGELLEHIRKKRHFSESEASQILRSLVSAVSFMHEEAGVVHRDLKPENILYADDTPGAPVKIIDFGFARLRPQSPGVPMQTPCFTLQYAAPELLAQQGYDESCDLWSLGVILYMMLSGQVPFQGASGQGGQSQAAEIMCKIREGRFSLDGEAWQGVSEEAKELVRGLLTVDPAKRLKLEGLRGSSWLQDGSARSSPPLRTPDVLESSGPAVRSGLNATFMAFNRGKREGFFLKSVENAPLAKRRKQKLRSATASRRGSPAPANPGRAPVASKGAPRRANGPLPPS

[22] = molecular target: Serine/threonine-protein kinase Sgk1 (Homo sapiens) (UniProt O00141); assay: Binding affinity to wild-type human partial length SGK (I60 to L431 residues) expressed in mammalian expression system assessed as residual binding level at 10 uM by Kinomescan method relative to control
[23] = molecular target: Serine/threonine-protein kinase TAO1 (Homo sapiens) (UniProt Q7L7X3); assay: Binding affinity to wild-type human partial length TAOK1 (M1 to A320 residues) expressed in mammalian expression system assessed as residual binding level at 10 uM by Kinomescan method relative to control
[24] = molecular target: TGF-beta receptor type-2 (Homo sapiens) (UniProt P37173); assay: Binding affinity to wild-type human partial length TGFBR2 (I218 to K567 residues) expressed in bacterial expression system assessed as residual binding level at 10 uM by Kinomescan method relative to control
Chain of TGF-beta receptor type-2 (Homo sapiens) (P37173 whole entry, the tested form may be a part): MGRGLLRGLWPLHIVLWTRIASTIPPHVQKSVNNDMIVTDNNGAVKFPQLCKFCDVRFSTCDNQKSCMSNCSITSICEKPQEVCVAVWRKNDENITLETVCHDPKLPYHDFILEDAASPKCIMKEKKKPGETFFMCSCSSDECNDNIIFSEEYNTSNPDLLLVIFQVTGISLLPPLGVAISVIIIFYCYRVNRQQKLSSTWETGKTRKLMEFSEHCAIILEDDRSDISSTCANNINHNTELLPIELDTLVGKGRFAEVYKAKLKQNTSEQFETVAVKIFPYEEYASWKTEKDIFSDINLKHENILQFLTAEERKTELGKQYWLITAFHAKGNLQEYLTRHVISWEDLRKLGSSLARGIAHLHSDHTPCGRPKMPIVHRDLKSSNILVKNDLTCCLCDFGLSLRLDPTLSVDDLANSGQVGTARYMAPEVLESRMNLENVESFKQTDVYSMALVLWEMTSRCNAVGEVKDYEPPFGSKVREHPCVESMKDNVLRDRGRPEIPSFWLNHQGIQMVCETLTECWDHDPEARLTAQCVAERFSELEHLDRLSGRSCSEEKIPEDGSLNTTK

CC(C)N1C(=O)C(NCCCN(C)C)=C(c2cn(C)c3ccccc23)C1=O.Cl
Activity [1]: 90% | Activity [2]: 96% | Activity [3]: 97% | Activity [4]: 91% | Activity [5]: 100% | Activity [6]: 90% | Activity [7]: 91% | Activity [8]: 100% | Activity [9]: 88% | Activity [10]: 97% | Activity [11]: 100% | Activity [12]: 80% | Activity [13]: 94% | Activity [14]: 91% | Activity [15]: 97% | Activity [16]: 100% | Activity [17]: 100% | Activity [18]: 95% | Activity [19]: 100% | Activity [20]: 91% | Activity [21]: 74% | Activity [22]: 95% | Activity [23]: 78% | Activity [24]: 92%
